Experimental data published in patent publication US8952024B2, “Herbicidal pyrimidone derivatives” (E I du Pont de Nemours and Company, priority 2009, dated 2015).

Key:
Assay in all cases: Test B pre-/postemergence plant response
Type in all cases: in vivo
[1] = test system: Italian ryegrass (Lolium multiflorum)
Outline: (§1)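 Visual ratings on a 0–100 scale (100 = complete control) were made versus untreated controls 13–15 days after treatment in a greenhouse. Compounds in surfactant-containing non-phytotoxic solvent were applied preemergence to seeds in loam–sand blend or postemergence to 1- to 4-leaf plants (2–18 cm).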

[2] = test system: bermudagrass (Cynodon dactylon); settings: for Bermudagrass plant response rating (0 to 100 scale): 0 is no effect
Outline: as §1

corn (Zea mays) = test system: corn (Zea mays)
Outline: as §1

[3] = test system: downy bromegrass (Bromus tectorum); settings: for Bromegrass, Downy plant response rating (0 to 100 scale): 0 is no effect
Outline: as §1

[4] = test system: giant foxtail (Setaria faberii)
Outline: as §1

[5] = test system: goosegrass (Eleusine indica)
Outline: as §1

[6] = test system: green foxtail (Setaria viridis)
Outline: as §1

[7] = test system: johnsongrass (Sorghum halepense)
Outline: as §1

[8] = test system: large crabgrass (Digitaria sanguinalis)
Outline: as §1

[9] = test system: morningglory (Ipomoea coccinea)
Outline: as §1

[10] = test system: ragweed (common ragweed, Ambrosia elatior)
Outline: as §1

[11] = test system: woolly cupgrass (Eriochloa villosa)
Outline: as §1

[12] = test system: yellow nutsedge (Cyperus esculentus)
Outline: as §1

[13] = 250 g ai/ha, Preemergence, 0 to 100 scale
[14] = Postemergence, 62 g ai/ha, scale 0 (no effect) to 100 (complete control), 13 to 15 days
[15] = Postemergence, 125 g ai/ha, visual rating after 13 to 15 days, scale 0 (no effect) to 100 (complete control)
[16] = Preemergence, 31 g ai/ha, scale 0 to 100 (0 no effect, 100 complete control)
[17] = Preemergence, 125 g ai/ha, 0 to 100 scale
[18] = Postemergence, 31 g ai/ha, scale 0 to 100 (0 no effect, 100 complete control)
[19] = Postemergence, 250 g ai/ha, scale 0 to 100
[20] = Preemergence, 62 g ai/ha, scale 0 to 100 (0 no effect, 100 complete control)
[21] = Postemergence, 31 g ai/ha, 0 to 100 scale (0 no effect, 100 complete control)
[22] = Postemergence, 125 g ai/ha, scale 0 to 100 (0 no effect, 100 complete control)
[23] = Postemergence, 250 g ai/ha, scale 0 to 100 (0 no effect, 100 complete control), 13 to 15 days
[24] = 62 g ai/ha, postemergence, 100 is complete control, 13 to 15 days
[25] = 31 g ai/ha, postemergence, scale 0 to 100, 0 is no effect, 100 is complete control
[26] = 62 g ai/ha, postemergence, 0 is no effect, 100 is complete control, 13 to 15 days
[27] = Postemergence, 250 g ai/ha, scale 0 to 100 (0 no effect, 100 complete control)

CCCCc1ncc(C(=O)C2=C(O)CCCC2=O)c(=O)n1-c1ccccc1 [Compound 42]
40: Plant response rating, Johnsongrass [7, 15]
70: Plant response rating, Bermudagrass [2, 18] | Plant response rating, Crabgrass, Large [8, 18] | Plant response rating, Morningglory [9, 14] | Plant response rating, Nutsedge, Yellow [12, 15]
10: Plant response rating, Ryegrass, Italian [1, 15] | Plant response rating, Corn (corn (Zea mays); [14]) | Plant response rating, Foxtail, Giant [4, 13] | Foxtail, Giant plant response rating [4, 17] | Johnsongrass plant response rating [7, 17] | Plant response rating, Nutsedge, Yellow [12, 16]
0: Plant response rating, Ryegrass, Italian [1, 13] | Plant response rating, Ryegrass, Italian [1, 16] | Ryegrass, Italian plant response rating [1, 17] | Plant response rating, Corn (corn (Zea mays); [13]) | Plant response rating, Corn (corn (Zea mays); [18]) | Plant response rating, Corn (corn (Zea mays); [16]) | Plant response rating, Corn (corn (Zea mays); [20]) | Corn plant response rating (corn (Zea mays); [17]) | Plant response rating, Bromegrass, Downy [3, 13] | Plant response rating, Bromegrass, Downy [3, 18] | Plant response rating, Bromegrass, Downy [3, 16] | Plant response rating, Bromegrass, Downy [3, 20] | Bromegrass, Downy plant response rating [3, 17] | Plant response rating, Foxtail, Giant [4, 16] | Plant response rating, Foxtail, Giant [4, 20] | Plant response rating, Johnsongrass [7, 14] | Plant response rating, Johnsongrass [7, 16] | Plant response rating, Johnsongrass [7, 20] | Plant response rating, Morningglory [9, 13] | Plant response rating, Morningglory [9, 16] | Plant response rating, Morningglory [9, 20] | Morningglory plant response rating [9, 17] | Plant response rating, Ragweed [10, 16] | Plant response rating, Cupgrass, Woolly [11, 16] | Plant response rating, Cupgrass, Woolly [11, 20] | Cupgrass, Woolly plant response rating [11, 17]
5: Plant response rating, Ryegrass, Italian [1, 14] | Plant response rating, Bromegrass, Downy [3, 14] | Plant response rating, Cupgrass, Woolly [11, 13]
45: Corn plant response rating (corn (Zea mays); [19]) | Plant response rating, Foxtail, Giant [4, 18] | Plant response rating, Crabgrass, Large [8, 16]
60: Plant response rating, Foxtail, Green [6, 15] | Plant response rating, Nutsedge, Yellow [12, 14]
85: Foxtail, Giant plant response rating [4, 19] | Plant response rating, Goosegrass [5, 14] | Plant response rating, Foxtail, Green [6, 13] | Foxtail, Green plant response rating [6, 19] | Foxtail, Green plant response rating [6, 17] | Plant response rating, Crabgrass, Large [8, 15] | Plant response rating, Crabgrass, Large [8, 20] | Plant response rating, Ragweed [10, 15] | Plant response rating, Nutsedge, Yellow [12, 13]
90: Plant response rating, Bermudagrass [2, 16] | Plant response rating, Goosegrass [5, 15] | Crabgrass, Large plant response rating [8, 19]
55: Plant response rating, Foxtail, Green [6, 14] | Cupgrass, Woolly plant response rating [11, 19]
65: Plant response rating, Foxtail, Giant [4, 14] | Plant response rating, Foxtail, Green [6, 16] | Plant response rating, Foxtail, Green [6, 20] | Plant response rating, Johnsongrass [7, 13] | Johnsongrass plant response rating [7, 19]
20: Plant response rating, Corn (corn (Zea mays); [15]) | Plant response rating, Cupgrass, Woolly [11, 14]
15: Plant response rating, Bromegrass, Downy [3, 15] | Plant response rating, Cupgrass, Woolly [11, 18]
75: Plant response rating, Bermudagrass [2, 14] | Plant response rating, Foxtail, Giant [4, 15] | Plant response rating, Crabgrass, Large [8, 14] | Plant response rating, Morningglory [9, 15] | Plant response rating, Ragweed [10, 14] | Nutsedge, Yellow plant response rating [12, 17]
98: Bermudagrass plant response rating [2, 19]
95: Plant response rating, Bermudagrass [2, 15] | Goosegrass plant response rating [5, 19] | Crabgrass, Large plant response rating [8, 17]
50: Plant response rating, Goosegrass [5, 16] | Plant response rating, Foxtail, Green [6, 18]
80: Plant response rating, Ragweed [10, 13]
100: Plant response rating, Bermudagrass [2, 13] | Plant response rating, Bermudagrass [2, 20] | Bermudagrass plant response rating [2, 17] | Plant response rating, Goosegrass [5, 13] | Goosegrass plant response rating [5, 17] | Plant response rating, Crabgrass, Large [8, 13]
25: Bromegrass, Downy plant response rating [3, 19] | Ragweed plant response rating [10, 17] | Plant response rating, Cupgrass, Woolly [11, 15]

O=C1CCCC(O)=C1C(=O)c1cnc(-c2ccccc2)n(C2CCSCC2)c1=O [Compound 164]
70: Plant response rating, Bermudagrass [2, 21] | Plant response rating, Corn (corn (Zea mays); [23]) | Plant response rating, Foxtail, Green [6, 21] | Plant response rating, Nutsedge, Yellow [12, 22]
75: Plant response rating, Cupgrass, Woolly [11, 21] | Plant response rating, Nutsedge, Yellow [12, 23]
15: Plant response rating, Corn (corn (Zea mays); [21])
90: Plant response rating, Foxtail, Giant [4, 21] | Plant response rating, Morningglory [9, 21]
80: Bromegrass, Downy plant response rating (0 to 100 scale) [3, 24]
45: Plant response rating, Corn (corn (Zea mays); [22]) | Plant response rating, Johnsongrass [7, 21]
100: Plant response rating, Bermudagrass [2, 23] | Plant response rating, Foxtail, Giant [4, 23] | Plant response rating, Foxtail, Green [6, 23] | Plant response rating, Crabgrass, Large [8, 23] | Plant response rating, Morningglory [9, 23] | Plant response rating, Ragweed [10, 23] | Plant response rating, Cupgrass, Woolly [11, 23]
98: Bermudagrass plant response rating (0 to 100 scale) [2, 24] | Plant response rating, Bermudagrass [2, 22] | Plant response rating, Foxtail, Giant [4, 22] | Plant response rating, Goosegrass [5, 22] | Plant response rating, Goosegrass [5, 23] | Plant response rating, Foxtail, Green [6, 22] | Plant response rating, Johnsongrass [7, 23] | Plant response rating, Crabgrass, Large [8, 22] | Plant response rating, Morningglory [9, 22] | Plant response rating, Ragweed [10, 22] | Plant response rating, Cupgrass, Woolly [11, 22]
20: Plant response rating, Ryegrass, Italian [1, 22]
95: Plant response rating, Bromegrass, Downy [3, 23] | Plant response rating, Johnsongrass [7, 22] | Plant response rating, Crabgrass, Large [8, 21]
5: Plant response rating, Ryegrass, Italian [1, 21]
40: Plant response rating, Ryegrass, Italian [1, 23] | Plant response rating, Bromegrass, Downy [3, 21] | Plant response rating, Nutsedge, Yellow [12, 21]
85: Plant response rating, Bromegrass, Downy [3, 22] | Plant response rating, Goosegrass [5, 21] | Plant response rating, Ragweed [10, 21]

COCCn1c(-c2ccccc2)ncc(C(=O)C2=C(O)CCCC2=O)c1=O [Compound 85]
80: Foxtail, Giant plant response rating (0 to 100 scale) [4, 26] | Plant response rating, Foxtail, Green [6, 25] | Plant response rating, Johnsongrass [7, 25] | Plant response rating, Ragweed [10, 25]
5: Bromegrass, Downy plant response rating (0 to 100 scale) [3, 24]
70: Corn plant response rating (0 to 100 scale) (corn (Zea mays); [26]) | Plant response rating, Goosegrass [5, 25] | Goosegrass plant response rating (0 to 100 scale) [5, 26]
0: Plant response rating, Ryegrass, Italian [1, 25] | Plant response rating, Bromegrass, Downy [3, 25]
10: Ryegrass, Italian plant response rating (0 to 100 scale) [1, 26]
75: Plant response rating, Foxtail, Giant [4, 25] | Plant response rating, Cupgrass, Woolly [11, 25] | Plant response rating, Nutsedge, Yellow [12, 25]
25: Plant response rating, Bromegrass, Downy [3, 15]
100: Morningglory plant response rating (0 to 100 scale) [9, 26] | Plant response rating, Morningglory [9, 27]
85: Plant response rating, Bermudagrass [2, 25] | Bermudagrass plant response rating (0 to 100 scale) [2, 24] | Plant response rating, Corn (corn (Zea mays); [15]) | Plant response rating, Corn (corn (Zea mays); [27]) | Plant response rating, Goosegrass [5, 27] | Ragweed plant response rating (0 to 100 scale) [10, 26] | Cupgrass, Woolly plant response rating (0 to 100 scale) [11, 26] | Nutsedge, Yellow plant response rating (0 to 100 scale) [12, 26] | Plant response rating, Nutsedge, Yellow [12, 27]
98: Plant response rating, Foxtail, Giant [4, 27] | Plant response rating, Foxtail, Green [6, 27] | Plant response rating, Johnsongrass [7, 27] | Plant response rating, Ragweed [10, 27]
50: Plant response rating, Corn (corn (Zea mays); [25])
95: Foxtail, Green plant response rating (0 to 100 scale) [6, 26] | Johnsongrass plant response rating (0 to 100 scale) [7, 26] | Plant response rating, Crabgrass, Large [8, 27] | Plant response rating, Morningglory [9, 25]
30: Plant response rating, Bromegrass, Downy [3, 27]
45: Plant response rating, Ryegrass, Italian [1, 27]
90: Plant response rating, Bermudagrass [2, 15] | Plant response rating, Bermudagrass [2, 27] | Plant response rating, Crabgrass, Large [8, 25] | Crabgrass, Large plant response rating (0 to 100 scale) [8, 26] | Plant response rating, Crabgrass, Large [8, 15] | Plant response rating, Cupgrass, Woolly [11, 15] | Plant response rating, Cupgrass, Woolly [11, 27]
